In article PMC9306587 (European Journal of Immunology, 2022):

Experiments:
HLA-E*01:03 [1] = biological target: T1, HLA-E*01:03 (Homo sapiens, UniProt P13747); test: pHLA-E complex stability by SPR (ILT2 binding over time); conditions: for t1/2: Table S2, SPR BIAcore T200, biotinylated pHLA-E monomers on streptavidin CM5 chip, 1 μM soluble ILT2 at regular intervals over 5 h, 25°C
T1 construct: made in house
Description: HLA‐E heavy chain (without transmembrane domain and with or without a C‐terminal biotinylation tag, AviTagsequence) and β2m were expressed and refolded with the peptide of interest and subsequently purified, as previously described. To biotinylate complexes prior to size exclusion chromatography, complexes were AviTag treated with biotin‐protein ligase (BirA) according to the manufacturer's instructions (Avidity BirA‐500 kit).
The stability of all pHLA‐E complexes was assessed by SPR using a BIAcore T200 instrument. Purified biotinylated pHLA‐E monomers (HLA‐E*01:03 was used throughout) were immobilized onto a streptavidin‐coupled CM5 sensor chip. A total of 1 μM of soluble ILT2 was flowed over the chip at 10 μL/min for 60 s. ILT2 binding to pHLA‐E complexes was measured at regular intervals over 5 h and responses were normalized by subtracting the bulk buffer response of a control flow cell containing no pHLA. Binding t 1/2 was calculated by plotting % activity against time using the Biacore T200 evaluation software version 3.0 and GraphPad Prism version 8.3.0.

HLA-ES147C = biological target: T2, HLA-ES147C (Homo sapiens, UniProt P13747, S168C); assay type: binding
T2 construct: made in house

HLA-E*01:03 [2] = biological target: T1, HLA-E*01:03; test: pHLA Thermofluor (thermal shift) assay; assay type: binding; conditions: Table S2; SYPRO Orange thermal shift, pHLA 0.25 mg/mL in PBS, 10 to 95°C at 1°C/min, triplicate; two independent experiments
Description: Thermal shift assay experiments were performed using a RT‐PCR instrument (Quantstudio 6, Applied Biosystems). SYPRO Orange protein gel stain (5000× stock solution) was diluted in PBS to yield a 75× working solution. In a 96‐well plate, 23 μL of pHLA at 0.25 mg/mL was added to 2 μL of SYPRO Orange working solution to a final volume of 25 μL, with each pHLA prepared in triplicate. Mixtures were heated from 10 to 95°C with a temperature increment of 1°C/min. Fluorescence was detected using the FAM filter set, with excitation and emission wavelength at 495 and 518 nm, respectively. Data analysis was performed using Protein Thermal Shift Software version 1.4 (Thermofisher Scientific) to determine Tm.

## VMAPRTLLL [LA13-11]
HLA-E*01:03 [1]
  t1/2: 2.8 h
HLA-E*01:03 [1]; representative of at least two independent experiments
  t1/2: 2.8 h
HLA-E*01:03 [1]; Table S4, SPR with ILT2 over 5 h
  t1/2(hours) HLA-E: 2.8 h
HLA-ES147C
  t1/2(hours) HLA-ES147C(H3C): 16.74 h
HLA-E*01:03 [2]
  Average Tm: 47.87 °C
